Results: article PMC5013675, “Nucleotide binding by the widespread high-affinity cyclic di-GMP receptor MshEN domain” (Nature Communications, 2016)
Several values for one entry are separate records, joined by “and”; a condition that tells them apart may be missing. Equal entries are not always repeated.

How the values were obtained:
VcMshEN1-145 (wild type) = VcMshEN1-145 (wild type) (Vibrio cholerae, UniProt Q9KUV7); test: biochemical; format: binding
VcMshEN G40I = VcMshEN G40I (Vibrio cholerae, UniProt Q9KUV7, G40I); format: binding
GST = GST (Schistosoma japonicum, UniProt P08515); test: ITC control, GST alone with c-di-GMP; format: binding
[1] = target: T1, D. geothermalis PilB_2 (ABF44566 151-300) (Deinococcus geothermalis, UniProt Q1J1R8); test: ITC titration of D. geothermalis PilB_2 with c-di-GMP; format: binding
T1 sequence (Q1J1R8 151-300): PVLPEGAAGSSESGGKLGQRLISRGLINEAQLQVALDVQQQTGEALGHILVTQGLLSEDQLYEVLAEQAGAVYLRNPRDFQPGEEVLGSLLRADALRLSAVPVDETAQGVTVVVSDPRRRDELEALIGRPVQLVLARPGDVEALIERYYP

[2] = target: D. geothermalis PilB_3 (ABF44566 301-475); test: ITC titration of D. geothermalis PilB_3 with c-di-GMP; format: binding, Deinococcus geothermalis; conditions: ABF44566_III, ND = not detectable
[3] = target: T2, Moorella thermoacetica GspE (ABC19863 1-141) (Neomoorella thermoacetica, UniProt A0AAC9HIF0); test: ITC titration of Moorella thermoacetica GspE MshEN with c-di-GMP; format: binding
T2 sequence (A0AAC9HIF0 1-141): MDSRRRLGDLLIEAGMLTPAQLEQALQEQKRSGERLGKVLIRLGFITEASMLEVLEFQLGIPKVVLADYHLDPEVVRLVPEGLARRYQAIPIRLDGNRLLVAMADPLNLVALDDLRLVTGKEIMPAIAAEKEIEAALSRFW

V. cholerae MshEN_N1-65 = V. cholerae MshEN_N1-65 (Vibrio cholerae, UniProt Q9KUV7); test: biochemical; format: binding
[4] = target: Aeromonas veronii CheA (EKB11881 261-390); format: binding; conditions: read-out: Dissociation constant (KD)
[5] = target: MshEN analogues, diverse bacterial proteins with the c-di-GMP-binding motif; conditions: read-out: binding constants
VcMshEN wild type = format: binding, Vibrio cholerae
[6] = target: P. aeruginosa PA3740 (AAG07127); conditions: cited from earlier work
[7] = test system: full-length MshE protein (ATPase); conditions: cited from earlier work

In the case of `Nc1nc2c(ncn2[C@@H]2O[C@@H]3CO[P@](=O)(O)O[C@H]4[C@@H](O)[C@H](n5cnc6c(=O)[nH]c(N)nc65)O[C@@H]4CO[P@](=O)(O)O[C@H]3[C@H]2O)c(=O)[nH]1` [c-di-GMP, Cyclic dimeric GMP], the Kd (VcMshEN1-145 (wild type)) is reported as 500 nM, the “Fold change of KD” value (VcMshEN G40I) is reported as 72.0 and the c-di-GMP binding (GST) is reported as “no c-di-GMP binding”. The Ligand/protein ratio [1] was 1.01, the Kd ([1]; KD, middle domain of PilB (ABF44566)) was 14 nM and 13.5 nM and the “Dissociation constant (KD)” value [2] was “completely lost it binding affinity”. For the same compound, the Ligand/protein ratio [3] was 1.01, the Kd ([3]; read-out: Dissociation constant (KD)) was 460 nM and the Kd (V. cholerae MshEN_N1-65) was 350 nM. For the same compound, the Ligand/protein ratio (V. cholerae MshEN_N1-65) was 0.99, the Kd [4] was 2600 nM and the Kd [5] was roughly 500 nM. The “Melting temperature Tm, + c-di-GMP” value (VcMshEN wild type) was 71 ºC, the Melting temperature increase (VcMshEN wild type) was 9 º and the “Tm Difference (+ c-di-GMP minus absence)” value (VcMshEN wild type) was 10 ºC. The Kd [6] was roughly 30 nM and the “Stimulation of ATPase activity by external c-di-GMP” value [7] was less than 10%.

In the case of cGMP, the “Binding to the MshEN domain” value (VcMshEN wild type) is reported as “cannot bind”.

For c-di-AMP, the “Dissociation constant (KD)” value (VcMshEN1-145 (wild type)) was “non-detectable” and the KD (VcMshEN1-145 (wild type)) was “non-detectable”.
